The record followed here is ChEMBL document CHEMBL5604062, “ASAP - ZIKV NS2B-NS3 protease fluorescence dose response” (2024).

Values joined by “and” are separate entries in the source; they are usually repeats but may differ in a detail not shown here. Equal entries are not always repeated. Bounds are passed on as bounds.

The target of this test is Nonstructural protein 3 (Zika virus, UniProt A0A024AXB9). As to the kind of experiment: Functional biochemical assay to identify treatments for viral infectious disease that targets Zika NS2B-NS3 protease. Utilizing a direct enzyme activity measurement method, reading the fluorescence intensity is used to characterize the relative potency of inhibitors as IC50. Also noted: species or system PRVABC59.
Chain of Nonstructural protein 3 (A0A024AXB9 whole entry): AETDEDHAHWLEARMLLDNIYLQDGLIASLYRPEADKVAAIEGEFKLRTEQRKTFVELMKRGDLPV
As for `O=C(O)c1cc(Cl)ccc1NS(=O)(=O)c1ccc(OCc2ccncc2)cc1`, the 50% inhibitory concentration (IC50) – broadly, the concentration needed to halve the response being measured – is > 99.5 µM. Turning to `Cc1noc(C)c1C(=O)N[C@@H](C(=O)Nc1cccc(CN)c1)c1ccc(OCc2ccccc2)cc1`, the 50% inhibitory concentration (IC50) is > 99.5 µM. `O=C(NCCO)c1cc(Cl)ccc1NS(=O)(=O)c1ccc(Oc2ccccc2Cl)cc1`: the half-inhibitory concentration (IC50) was > 99.5 µM. Then `N[C@H]1CCc2cc(-c3ccn(-c4ccccc4)n3)ccc2C1`, with > 99.5 µM. Then `O=C(O)c1cc2c(cc1NS(=O)(=O)c1ccc(F)cc1)CCC2`, with > 99.5 µM. Then `CCc1ccccc1COc1ccc(S(=O)(=O)Nc2ccc(Cl)cc2C(=O)O)cc1`, with 12.6 µM. `CCn1nccc1-c1cccc([C@@H](NC(=O)OCc2ccccc2)C(=O)Nc2cccc(CN)c2)c1`: the IC50 is > 99.5 µM. For the compound `NCCNC(=O)c1cc(Cl)ccc1NS(=O)(=O)c1ccc(Oc2ccccc2Cl)cc1`, the IC50 was > 99.5 µM. Then `O=C(O)c1cc(Cl)ccc1NS(=O)(=O)c1ccc(OCc2nnnn2C2CCC2)cc1`, with > 99.5 µM; and `NCc1cccc(NC(=O)[C@H](NC(=O)OCc2ccccc2)c2ccc(Br)c(Cl)c2)c1`, with 10.9 µM and 8.65 µM and 8.23 µM and 9.33 µM; and `O=C(O)c1cc(Cl)ccc1NS(=O)(=O)c1ccc(OCc2cncnc2)cc1`, with > 99.5 µM. For `O=C(O)c1cc(Cl)ccc1NS(=O)(=O)c1ccc(NC2CCNCC2)nc1`, the concentration for half-maximal inhibition (IC50) is > 99.5 µM. The result for `Cc1cc(F)cc(N(C)C(=O)c2ccc(C3(CN)CC3)cc2)c1` reads > 99.5 µM; that for `Cc1n[nH]cc1CC(=O)N1CCCC12CCN(C(=O)c1ccnc(CO)c1)CC2`, > 99.5 µM. Then `CC[C@H]1CN(C(=O)c2ccc(C3(CN)CC3)cc2)Cc2ccccc21`, with > 99.5 µM. The result for `NCc1cccc(NC(=O)[C@@H]2Cc3ccc(OCc4ccccc4)cc3CN2C(=O)OCc2ccccc2)c1` reads 21.7 µM; that for `NCC1(c2ccc(C(=O)N3CCc4scc(Br)c4C3)cc2)CC1`, > 99.5 µM; that for `NCc1ccc(CNC(=O)[C@@H](NC(=O)OCc2ccccc2)c2ccc(OCc3ccccc3)cc2)cc1`, 14.2 µM and 11.5 µM. As to `O=C(NC1CCCCC1)c1cc(Cl)ccc1NS(=O)(=O)c1ccc(Oc2ccccc2Cl)cc1`, the 50% inhibitory concentration (IC50) is > 99.5 µM. The result for `NCc1cccc(NC(=O)[C@@H](NC(=O)OCc2ccccc2)c2ccc(OCc3ncccn3)cc2)c1` reads 47.9 µM. Turning to `NCc1cccc(NC(=O)[C@H]2[C@H]3CCCCC[C@H]3[C@H]2NC(=O)OCc2ccccc2)c1`, the IC50 is 41.3 µM and 51.2 µM and 13 µM and 11.9 µM. Turning to `Cc1cc(-c2cccc([C@@H](NC(=O)OCc3ccccc3)C(=O)Nc3cccc(CN)c3)c2)ccn1`, the half-maximal inhibitory concentration (IC50) was 88.1 µM.

Turning to `CCCCCN(C)C(=O)c1cc(Cl)ccc1NS(=O)(=O)c1ccc(Oc2ccccc2Cl)cc1`, the IC50 was > 99.5 µM. The result for `O=C(N[C@@H](C(=O)NCc1cccc2c1CCNC2)c1ccc(OCc2ccccc2)cc1)OCc1ccccc1` reads 39.4 µM; that for `NCc1cccc(NC(=O)C[C@H](NC(=O)OCc2ccccc2)c2ccc(C(F)(F)F)cc2)c1`, 58.3 µM.

`NC[C@H]1CC[C@H](NC(=O)[C@@H](NC(=O)OCc2ccccc2)c2ccc(OCc3ccccc3)cc2)CC1` showed an IC50 of 81.2 µM. For `N[C@@H](Cc1c[nH]cn1)C(=O)N1CCC2(CC1)OCCc1cc(O)ccc12`, the concentration for half-maximal inhibition (IC50) is > 99.5 µM. Then `CN(C)CCNC(=O)[C@H](NC(=O)OCc1ccccc1)c1ccc(OCc2ccccc2)cc1`, with > 99.5 µM. The result for `O=C(N[C@@H](C(=O)NCC1CCNCC1)c1ccc(OCc2ccccc2)cc1)OCc1ccccc1` reads > 99.5 µM. Then `NC[C@H]1CC[C@H](CNC(=O)[C@@H](NC(=O)OCc2ccccc2)c2ccc(OCc3ccccc3)cc2)CC1`, with 80.3 µM; and `CCn1ccnc(N2CC(=O)[C@@H](c3c[nH]c4ccccc34)C2)c1=O`, with > 99.5 µM; and `O=S(=O)(Nc1ccc(Cl)cc1CN(CC1CC1)CC1CC1)c1ccc(Oc2ccccc2Cl)cc1`, with 32 µM. With `O=C(NCc1nnn[nH]1)c1cc(Cl)ccc1NS(=O)(=O)c1ccc(Oc2ccccc2Cl)cc1`, the IC50 was > 99.5 µM. The result for `NCc1ccc(-c2ccc(OCC3CCNCC3)nc2-c2ccc(-c3ccoc3)cc2)cc1` reads 22.8 µM.
